Experimental data taken from patent US20090247616A1, “USE OF BENZO-FUSED HETEROCYLE SULFAMIDE DERIVATIVES FOR THE TREATMENT OF ANXIETY” (priority 2008, published 2009).

How the values were obtained:
[1] = test system: Male Rj:NMRI mice; test: Elevated Plus Maze, Mouse (EPM); assay type: in vivo; conditions: 16 mg/kg p.o. (positive control)
From the text: Rodents avoid open spaces (in the case of the assay apparatus, the open arms of an elevated plus-maze). Compounds which have anti-anxiety activity increase exploratory activity of the rodents in the open arms of the elevated plus-maze. The EPM assay was run according to the procedure as described by Handley and Mithani (Naunyn. Schmied. Arch. Pharmacol., 327, 1-5, 1984).
Male Rj:NMRI mice, weighing 20-30 g (max. range per experiment=5 g) at the beginning of the experiments, were obtained from Elevage Janvier, 53940 Le Genest-Saint-Isle, France and used in the assay. The animals were delivered to the laboratory at least 5 days before the experiments during which time they were acclimatized to laboratory conditions. The mice were housed in groups of 10 in Macrolon cages (25×19×13 cm) on wood litter (Litalabo—SPPS, 95100 Argenteuil, France) with free access to food (Code 113—SAFE, 89290 Augy, France) and water until tested (or as indicated otherwise). The animal house was maintained under artificial lighting (12 hours) between 7:00 and 19:00 in a controlled ambient temperature of 21±3° C., and relative humidity between 30-80%.
The elevated plus-maze consisted of 4 arms of equal length and width (14×5 cm) arranged in the form of a plus sign (+). Two opposite arms were enclosed by 12 cm high walls (closed arms). The 2 other arms had no walls (open arms). The maze was raised 56 cm above the floor. A mouse was placed in the centre of the plus-maze and left to explore the maze for 5 minutes. The number of entries into the open and closed arms and the time spent in the open arms was recorded. Ten (10) mice were used for each study group. The test was performed blind.
(§1) Compound #8 was evaluated at 30 mg/kg, 60 mg/kg and 120 mg/kg doses, administered p.o. 60 minutes before the test, and compared with a vehicle control group. Compound #8 was homogenized and dispersed using a mortar and a pestle in 0.2% hydroxypropylmethylcellulose (HPMC) in distilled water, which served as the vehicle. As a positive control, Clobazam (16 mg/kg p.o.), was administered under the same experimental conditions. Clobazam as URBANYL® tablets (16 mg/kg p.o.) were dispersed in 0.2% hydroxypropylmethylcellulose (HPMC) in distilled water for administration. Each experiment therefore included 5 study groups of 10 mice each.
(§2) Data were analyzed by comparing groups treated with compound #8 with groups treated with vehicle control using unpaired Student's t tests.

[2] = test system: mouse; test: Four Plate Test, Mouse; assay type: in vivo; conditions: 32 mg/kg p.o. (positive control)
From the text: The Four Plate assay was run according to the procedure as described by Aron et al (Neuropharmacology, 10, 459-469, 1971). In this assay, the rodent experiences an electric shock upon crossing from one plate to another. Anxiolytics (such as benzodiazepines) increase the number of punished crossings.
Animals were placed individually in a white plastic enclosure containing a floor consisting of 4 metal plates connected to an electric shock generator (Apelex: Type 011346). The mouse was left to explore freely for 15 seconds. Then, every time the mouse crossed from one plate to another, it received a weak electric shock (2.5 mA, 1.5 s). The number of punished crossings were counted during a 1 minute test. Ten (10) mice were used for each study group. The test was performed blind.
as §1, with “(32” for “(16”, “Clobazam as URBANYL® tablets (16 mg/kg p.o.) were dispersed in 0.2% hydroxypropylmethylcellulose (HPMC) in distilled water for administration. Each experiment therefore included 5 study groups of 10 mice each.” left out
as §2

[3] = same experimental conditions, 10 mice

SMILES	melting point	Closed Arms Number of Entries, Mean ± S.E.M. [1, 3]	Open Arms Number of Entries, Mean ± S.E.M. [1, 3]	Open Arms Time Spent (sec), Mean ± S.E.M. [1, 3]	Closed Arms Number of Entries, % change ([1]; change from vehicle control)	Open Arms Number of Entries, % change ([1]; change from vehicle control)	Open Arms Time Spent, % change ([1]; change from vehicle control)	Number of Punished Crossings, Mean ± S.E.M. [2, 3]	Number of Punished Crossings, % Change ([2]; change from vehicle control)
NS(=O)(=O)NCC1CCc2ccccc2O1 (stereo not drawn)	100 to 101 °C	–	–	–	–	–	–	–	–
CN1C(=O)CC(=O)N(c2ccccc2)c2cc(Cl)ccc21 [CLOBAZAM, Clobazam]	–	11.9 ± 1.5 (*)	11.7 ± 1.1 (***)	120.1 ± 13.1 s	+59%	+350%	+567%	9.9 ± 1.2 (***)	+154%
